Measurements taken from article PMC12064818, “A general assay platform to study protein pharmacology using ligand-dependent structural dynamics” (Nature Communications, 2025).

Target: firefly luciferase (FLuc) (Photinus pyralis, UniProt P08659)
Experiment: Thermal shift profiles (Thermofluor assay), FLuc;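 on Thermofluor FLuc, No ATP: normalized first derivative of fluorescence (dF/dT) at the stated temperature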
Type: binding
Design: unit of the concentration uncertain
Conditions: compound 100 (unit uncertain); for Thermofluor FLuc, ATP: ATP (2 (unit uncertain))

firefly luciferase (FLuc), sequence (P08659 whole entry): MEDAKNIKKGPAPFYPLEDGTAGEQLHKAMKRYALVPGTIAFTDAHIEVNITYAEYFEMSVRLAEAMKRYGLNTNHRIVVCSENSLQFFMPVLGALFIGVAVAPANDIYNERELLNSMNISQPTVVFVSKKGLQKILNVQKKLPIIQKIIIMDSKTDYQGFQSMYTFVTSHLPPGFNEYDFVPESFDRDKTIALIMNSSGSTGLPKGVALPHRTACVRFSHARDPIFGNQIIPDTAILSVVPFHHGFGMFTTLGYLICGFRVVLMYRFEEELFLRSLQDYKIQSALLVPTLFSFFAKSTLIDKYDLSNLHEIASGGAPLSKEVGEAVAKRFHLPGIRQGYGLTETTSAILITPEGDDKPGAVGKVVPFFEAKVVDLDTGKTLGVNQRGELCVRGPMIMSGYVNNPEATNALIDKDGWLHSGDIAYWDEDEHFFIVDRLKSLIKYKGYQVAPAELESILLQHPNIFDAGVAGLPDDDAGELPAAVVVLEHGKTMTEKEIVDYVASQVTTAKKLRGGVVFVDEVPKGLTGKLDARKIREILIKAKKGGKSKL

With `CC(CNC(=O)C1CCN(C(=O)c2ncn3c2COC(c2ccccc2)C3)CC1)c1ccccc1` (centres unmarked) [NCGC 00449795] the “Thermofluor FLuc, No ATP” value (20.000 °C) was 0.224, the “Thermofluor FLuc, ATP” value (20.000 °C) was 0.781 and the “Thermofluor FLuc, No ATP” value (20.993 °C) was 0.114. The “Thermofluor FLuc, ATP” value (20.993 °C) was 0.794, the “Thermofluor FLuc, No ATP” value (21.987 °C) was 0.126 and the “Thermofluor FLuc, ATP” value (21.987 °C) was 0.808. The “Thermofluor FLuc, No ATP” value (22.980 °C) was 0.133, the “Thermofluor FLuc, ATP” value (22.980 °C) was 0.818 and the “Thermofluor FLuc, No ATP” value (23.974 °C) was 0.087. For the same compound, the “Thermofluor FLuc, ATP” value (23.974 °C) was 0.824, the “Thermofluor FLuc, No ATP” value (24.967 °C) was 0.106 and the “Thermofluor FLuc, ATP” value (24.967 °C) was 0.824. The “Thermofluor FLuc, No ATP” value (25.960 °C) was 0.064, the “Thermofluor FLuc, ATP” value (25.960 °C) was 0.818 and the “Thermofluor FLuc, No ATP” value (26.954 °C) was 0.085. For the same compound, the “Thermofluor FLuc, ATP” value (26.954 °C) was 0.807, the “Thermofluor FLuc, No ATP” value (27.947 °C) was 0.040 and the “Thermofluor FLuc, ATP” value (27.947 °C) was 0.794. The “Thermofluor FLuc, No ATP” value (28.940 °C) was 0.026, the “Thermofluor FLuc, ATP” value (28.940 °C) was 0.78 and the “Thermofluor FLuc, No ATP” value (29.934 °C) was 0.058. The “Thermofluor FLuc, ATP” value (29.934 °C) was 0.768, the “Thermofluor FLuc, No ATP” value (30.927 °C) was 0.042 and the “Thermofluor FLuc, ATP” value (30.927 °C) was 0.757. The “Thermofluor FLuc, No ATP” value (31.921 °C) was 0.056, the “Thermofluor FLuc, ATP” value (31.921 °C) was 0.744 and the “Thermofluor FLuc, No ATP” value (32.914 °C) was 0.053. The “Thermofluor FLuc, ATP” value (32.914 °C) was 0.724, the “Thermofluor FLuc, No ATP” value (33.907 °C) was 0.025 and the “Thermofluor FLuc, ATP” value (33.907 °C) was 0.688. For the same compound, the “Thermofluor FLuc, No ATP” value (34.901 °C) was 0.000, the “Thermofluor FLuc, ATP” value (34.901 °C) was 0.633 and the “Thermofluor FLuc, No ATP” value (35.894 °C) was 0.005. For the same compound, the “Thermofluor FLuc, ATP” value (35.894 °C) was 0.557, the “Thermofluor FLuc, No ATP” value (36.887 °C) was 0.023 and the “Thermofluor FLuc, ATP” value (36.887 °C) was 0.463. For the same compound, the “Thermofluor FLuc, No ATP” value (37.881 °C) was 0.061, the “Thermofluor FLuc, ATP” value (37.881 °C) was 0.358 and the “Thermofluor FLuc, No ATP” value (38.874 °C) was 0.092. For the same compound, the “Thermofluor FLuc, ATP” value (38.874 °C) was 0.252, the “Thermofluor FLuc, No ATP” value (39.868 °C) was 0.154 and the “Thermofluor FLuc, ATP” value (39.868 °C) was 0.156. For the same compound, the “Thermofluor FLuc, No ATP” value (40.861 °C) was 0.218, the “Thermofluor FLuc, ATP” value (40.861 °C) was 0.078 and the “Thermofluor FLuc, No ATP” value (41.854 °C) was 0.347. The “Thermofluor FLuc, ATP” value (41.854 °C) was 0.026, the “Thermofluor FLuc, No ATP” value (42.848 °C) was 0.433 and the “Thermofluor FLuc, ATP” value (42.848 °C) was 0. The “Thermofluor FLuc, No ATP” value (43.841 °C) was 0.514, the “Thermofluor FLuc, ATP” value (43.841 °C) was 0 and the “Thermofluor FLuc, No ATP” value (44.835 °C) was 0.555. The “Thermofluor FLuc, ATP” value (44.835 °C) was 0.021, the “Thermofluor FLuc, No ATP” value (45.828 °C) was 0.658 and the “Thermofluor FLuc, ATP” value (45.828 °C) was 0.057. The “Thermofluor FLuc, No ATP” value (46.821 °C) was 0.723, the “Thermofluor FLuc, ATP” value (46.821 °C) was 0.105 and the “Thermofluor FLuc, No ATP” value (47.815 °C) was 0.793. For the same compound, the “Thermofluor FLuc, ATP” value (47.815 °C) was 0.162, the “Thermofluor FLuc, No ATP” value (48.808 °C) was 0.830 and the “Thermofluor FLuc, ATP” value (48.808 °C) was 0.225. The “Thermofluor FLuc, No ATP” value (50.795 °C) was 0.929, the “Thermofluor FLuc, ATP” value (50.795 °C) was 0.362 and the “Thermofluor FLuc, No ATP” value (51.788 °C) was 0.936. For the same compound, the “Thermofluor FLuc, ATP” value (51.788 °C) was 0.434, the “Thermofluor FLuc, ATP” value (52.782 °C) was 0.507 and the “Thermofluor FLuc, No ATP” value (53.775 °C) was 1.000. The “Thermofluor FLuc, ATP” value (53.775 °C) was 0.578, the “Thermofluor FLuc, No ATP” value (54.768 °C) was 0.997 and the “Thermofluor FLuc, ATP” value (54.768 °C) was 0.643. For the same compound, the “Thermofluor FLuc, No ATP” value (55.762 °C) was 0.999, the “Thermofluor FLuc, ATP” value (55.762 °C) was 0.699 and the “Thermofluor FLuc, No ATP” value (56.755 °C) was 0.989. For the same compound, the “Thermofluor FLuc, ATP” value (56.755 °C) was 0.743, the “Thermofluor FLuc, No ATP” value (57.748 °C) was 0.966 and the “Thermofluor FLuc, ATP” value (57.748 °C) was 0.774. For the same compound, the “Thermofluor FLuc, No ATP” value (58.742 °C) was 0.936, the “Thermofluor FLuc, ATP” value (58.742 °C) was 0.793 and the “Thermofluor FLuc, No ATP” value (59.735 °C) was 0.945. The “Thermofluor FLuc, ATP” value (59.735 °C) was 0.802, the “Thermofluor FLuc, No ATP” value (60.729 °C) was 0.960 and the “Thermofluor FLuc, ATP” value (60.729 °C) was 0.805. The “Thermofluor FLuc, No ATP” value (61.722 °C) was 0.919, the “Thermofluor FLuc, ATP” value (61.722 °C) was 0.804 and the “Thermofluor FLuc, No ATP” value (62.715 °C) was 0.915. For the same compound, the “Thermofluor FLuc, ATP” value (62.715 °C) was 0.801, the “Thermofluor FLuc, No ATP” value (63.709 °C) was 0.911 and the “Thermofluor FLuc, ATP” value (63.709 °C) was 0.797. For the same compound, the “Thermofluor FLuc, No ATP” value (65.695 °C) was 0.892, the “Thermofluor FLuc, ATP” value (65.695 °C) was 0.793 and the “Thermofluor FLuc, No ATP” value (66.689 °C) was 0.889. For the same compound, the “Thermofluor FLuc, ATP” value (66.689 °C) was 0.799, the “Thermofluor FLuc, No ATP” value (68.676 °C) was 0.909 and the “Thermofluor FLuc, ATP” value (68.676 °C) was 0.827. The “Thermofluor FLuc, No ATP” value (69.669 °C) was 0.830, the “Thermofluor FLuc, ATP” value (69.669 °C) was 0.847 and the “Thermofluor FLuc, No ATP” value (70.662 °C) was 0.839. The “Thermofluor FLuc, ATP” value (70.662 °C) was 0.865, the “Thermofluor FLuc, No ATP” value (71.656 °C) was 0.811 and the “Thermofluor FLuc, ATP” value (71.656 °C) was 0.881. For the same compound, the “Thermofluor FLuc, No ATP” value (72.649 °C) was 0.810, the “Thermofluor FLuc, ATP” value (72.649 °C) was 0.893 and the “Thermofluor FLuc, No ATP” value (73.643 °C) was 0.758. The “Thermofluor FLuc, ATP” value (73.643 °C) was 0.901, the “Thermofluor FLuc, No ATP” value (74.636 °C) was 0.788 and the “Thermofluor FLuc, ATP” value (74.636 °C) was 0.906. For the same compound, the “Thermofluor FLuc, No ATP” value (75.629 °C) was 0.714 and the “Thermofluor FLuc, ATP” value (75.629 °C) was 0.91.
